Assay results published in patent EP1209147A1, “CARBOXYLIC ACID DERIVATIVES AND ADHESION MOLECULE INHIBITORS CONTAINING THE SAME AS THE ACTIVE INGREDIENT” (TORAY INDUSTRIES, INC., priority 1999, dated 2001).

Legend:
[1] = target: VLA-4-IgG chimeric protein (Homo sapiens, UniProt P05556+P13612); assay: Inhibition of binding between CS-1 peptide and VLA-4-IgG chimeric protein; conditions: binding of VLA-4-IgG chimeric protein to immobilized CS-1 peptide; compound preincubated 20 minutes; read-out: Inhibition Activity(IC50 : nM)
Procedure: The adhesion-inhibition activity of the compound of the present invention against VLA-4 may be examined by using an adhesion assay system in which the adhesion between VLA-4-expressing cells such as Ramos cells and Jurkat cells, and fibronectin or a fragment thereof, e.g., a peptide containing CS-1 sequence (Gly Pro Glu Ile Leu Asp Val Pro Ser Thr) (hereinafter referred to as "CS-1 peptide") immobilized on an immunoplate is measured. Alternatively, a binding assay system in which the binding of the VLA-4 protein to the fibronectin or a fragment thereof such as CS-1 peptide immobilized on an immunoplate is measured may be employed. In the present invention, the inhibition assay of the compound is preferably measured by a binding assay system which measures the binding between a chimeric protein of VLA-4 and immunoglobulin (VLA-4-IgG chimeric protein) and CS-1 peptide (Japanese patent application No. H9-234544), although the method of measuring the inhibition activity is not restricted to this method. The term "VLA-4-IgG chimeric protein" herein means the heterodimer composite molecule in which a chimeric protein between α4 of VLA-4 and immunoglobulin (hereinafter referred to as "VLAα4·IgG chimeric protein), and a chimeric protein between β1 of VLA-4 and immunoglobulin (hereinafter referred to as "VLAβ1·IgG chimeric protein) are associated. As the immunoglobulin, although heavy chain or light chain of IgG, IgM or the like may be employed, in the present invention, IgG1 heavy chain is used. When testing the inhibition activity of the compound, it is preferred to preliminarily mix the VLA-4-IgG chimeric protein and the test compound.
Effects of Compounds for Inhibition of Binding Between CS-1 Peptide and VLA-4-IgG
A conjugate between a peptide (Gys Leu His Gly Pro Glu Ile Leu Asp Val Pro Ser Thr) containing CS-1 sequence and rabbit IgG (Sigma) was prepared by the reported method (Humphries, M.J. et al. J. Biol.Chem., 262, 6886-6892 (1987)). The obtained conjugate was diluted with phosphate buffer (hereinafter referred to as "PBS(-)", NISSUI) and the resulting solution was placed in wells of a 96-well immunoplate (NUNC) in an amount of 100 µl/well, followed by leaving the solution to stand at 4°C for 16 hours to immobilize the conjugate.
Then each well was washed twice with PBS(-), and a PBS solution containing 1% BSA heat-treated at 80°C for 10 minutes was placed in each well in an amount of 300 µl/well. The immunoplate was left to stand at 4°C for 3 hours, and then the solution in each well was removed by aspiration.
After preliminarily allowing each compound to react with VLA-4-IgG chimeric protein (100 µl) at room temperature for 20 minutes, the resulting solution was allowed to react with CS-1 peptide in each well at 30°C for 3 hours. Thereafter, non-bound VLA-4-IgG chimeric protein was removed by aspiration and each well was washed twice with 0.1% BSA-containing TBS buffer (150 mM NaCl,25 mM Tris-HCI, 1 mM MnCl2 pH 7.4). To the bound VLA-4-IgG chimeric protein, biotin-labeled anti-human IgG antibody (Vector) as an primary antibody was added, and then avidin-labeled horse radish peroxidase (Sigma) as a secondary antibody was added, and the reaction was allowed to occur. After the reaction, o-phenylenediamine as a substrate was added to color the solution, and the absorbance at 490 nm was measured. From the absorbance, the binding-inhibition activity of each test compound was determined.

Auricular Edema Model = assay: Auricular edema model (IgE anti-DNP passive sensitization, DNFB induction); type: in vivo, BLAB/c mouse
Procedure: To each BLAB/c mouse (female, 7 weeks old, JAPAN CHARLES RIVER), mouse IgE anti-DNP antibody (5 mg/kg, SEIKAGAKU CORPORATION) was intravenously administered to passively sensitize the mouse. Twenty four hours later, 20 µl of 0.38% 2,4- dinitrofluorobenzene (DNFB, Aldrich) dissolved in acetone:olive oil (4:1) was applied to the auricle of the sensitized mouse to induce inflammation. The thickness of the auricle was measured until 24 hours after the induction with Digimatic Indicator (Mitutoyo) and the ear swelling rate was calculated according to the following equation: Ear Swelling Rate (%) = (A - B)/B x 100 [formula] • A: Thickness of right auricle at 24 hours after induction • B: Thickness of right auricle before induction
Twenty four hours after the induction, the auricle was cut off and fixed with formalin. After the fixation, continuous sections of the auricle were prepared and stained by Luna staining. The number of eosinophils in each section was counted and the total of them was defined as the number of eosinophils accumulated in the auricle.
Compound No. 140 used as the test compound was dissolved in physiological saline and the solution was intravenously administered totally 3 times, i.e., at the time of sensitization, at 8 hours and 24 hours after sensitization, at a dose of 400 mg/kg per each time. Further, to examine the effect of the compound when applied to the auricle, the compound was dissolved in ethanol, and the solution was applied to the auricle totally twice, i.e., at 8 hours after sensitization and at 1 hour before the induction, at a dose of 0.3 mg/ear. To the background group and the control group, physiological saline was intravenously administered and ethanol was applied, respectively. The experiment was carried out using 4 to 6 mice in each group. The results are shown in terms of mean ± standard error.
Twenty four hours after the induction, the auricle was cut off and fixed with formalin. After the fixation, continuous sections of the auricle were prepared and stained by Luna staining. The number of eosinophils in each section was counted. Compound No. 143 used as the test compound was dissolved in physiological saline and the solution was topically or systemically administered totally 3 times, i.e., at the time of sensitization, at 8 hours and 24 hours after sensitization. The experiment was carried out using 4 to 6 mice in each group. The results are shown in terms of mean ± standard error.

VLA-4-IgG chimeric protein, sequence (P13612 with tags, fused parts or gaps limits assumed): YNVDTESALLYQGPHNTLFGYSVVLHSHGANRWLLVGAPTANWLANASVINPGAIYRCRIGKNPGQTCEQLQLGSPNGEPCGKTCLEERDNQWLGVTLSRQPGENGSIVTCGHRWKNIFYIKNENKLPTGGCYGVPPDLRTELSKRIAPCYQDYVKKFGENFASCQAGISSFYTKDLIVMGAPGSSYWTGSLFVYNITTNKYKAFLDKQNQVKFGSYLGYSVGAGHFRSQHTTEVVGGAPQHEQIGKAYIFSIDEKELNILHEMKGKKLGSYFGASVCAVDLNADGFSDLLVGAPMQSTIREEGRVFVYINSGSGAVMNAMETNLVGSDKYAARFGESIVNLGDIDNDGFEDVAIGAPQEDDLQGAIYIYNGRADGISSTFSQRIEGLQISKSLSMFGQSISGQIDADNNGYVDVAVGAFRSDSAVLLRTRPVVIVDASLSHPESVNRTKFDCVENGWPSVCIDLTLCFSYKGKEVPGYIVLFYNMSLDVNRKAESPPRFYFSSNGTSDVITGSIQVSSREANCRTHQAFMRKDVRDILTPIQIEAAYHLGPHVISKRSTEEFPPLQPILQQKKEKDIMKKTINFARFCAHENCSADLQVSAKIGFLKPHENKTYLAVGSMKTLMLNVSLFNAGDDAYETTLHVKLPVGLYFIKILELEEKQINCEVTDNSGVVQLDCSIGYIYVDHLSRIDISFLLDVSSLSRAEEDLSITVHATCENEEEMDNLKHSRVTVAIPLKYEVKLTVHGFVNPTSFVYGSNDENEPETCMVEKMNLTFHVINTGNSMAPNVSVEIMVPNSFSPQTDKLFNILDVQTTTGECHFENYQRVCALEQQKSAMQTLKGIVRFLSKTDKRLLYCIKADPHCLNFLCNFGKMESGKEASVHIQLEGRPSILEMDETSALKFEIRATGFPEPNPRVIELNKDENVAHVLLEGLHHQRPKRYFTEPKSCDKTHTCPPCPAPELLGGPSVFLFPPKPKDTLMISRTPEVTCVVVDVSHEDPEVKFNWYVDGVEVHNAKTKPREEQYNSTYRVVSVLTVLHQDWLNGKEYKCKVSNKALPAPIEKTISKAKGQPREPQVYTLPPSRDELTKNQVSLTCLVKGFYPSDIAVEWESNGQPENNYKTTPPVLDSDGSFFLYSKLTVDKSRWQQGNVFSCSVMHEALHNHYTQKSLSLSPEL
VLA-4-IgG chimeric protein, sequence (P05556 with tags, fused parts or gaps limits assumed): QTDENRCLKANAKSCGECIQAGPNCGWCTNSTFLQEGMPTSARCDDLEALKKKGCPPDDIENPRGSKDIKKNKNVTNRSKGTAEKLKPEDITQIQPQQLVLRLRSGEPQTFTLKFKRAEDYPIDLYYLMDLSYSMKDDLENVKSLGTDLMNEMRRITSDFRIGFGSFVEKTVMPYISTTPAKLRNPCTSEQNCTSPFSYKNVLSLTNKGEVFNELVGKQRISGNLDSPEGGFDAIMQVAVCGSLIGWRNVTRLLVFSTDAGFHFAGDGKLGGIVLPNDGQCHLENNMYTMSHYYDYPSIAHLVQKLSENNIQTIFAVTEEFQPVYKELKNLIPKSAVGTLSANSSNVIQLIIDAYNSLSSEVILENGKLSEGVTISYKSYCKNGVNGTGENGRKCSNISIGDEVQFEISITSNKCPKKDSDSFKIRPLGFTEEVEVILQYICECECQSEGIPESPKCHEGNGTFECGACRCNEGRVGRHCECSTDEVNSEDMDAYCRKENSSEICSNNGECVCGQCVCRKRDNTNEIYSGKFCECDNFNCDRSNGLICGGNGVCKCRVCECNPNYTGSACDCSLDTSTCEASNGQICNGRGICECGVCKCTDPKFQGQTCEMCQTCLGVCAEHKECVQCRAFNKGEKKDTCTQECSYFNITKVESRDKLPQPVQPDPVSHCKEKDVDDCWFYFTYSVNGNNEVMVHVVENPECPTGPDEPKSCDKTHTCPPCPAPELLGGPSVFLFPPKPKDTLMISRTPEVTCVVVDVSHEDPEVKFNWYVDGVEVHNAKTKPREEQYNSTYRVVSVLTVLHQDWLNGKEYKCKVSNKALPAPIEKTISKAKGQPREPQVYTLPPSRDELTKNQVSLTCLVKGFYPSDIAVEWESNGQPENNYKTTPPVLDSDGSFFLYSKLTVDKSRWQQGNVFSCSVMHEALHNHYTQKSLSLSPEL

IC50 [1]: 1800 nM
Compound: CC(C)(C)CC(=O)N[C@@H](CSSC[C@H](NC(=O)CC(C)(C)C)C(=O)O)C(=O)O [Example 140, 3-((2(R)-carboxy-2(R)-(3,3-dimethylbutanoylamino)ethyl)disulfanyl)-2(R)-(3,3-dimethylbutanoylamino)propionic acid]
swelling of ear induced by application of the antigen (Auricular Edema Model; Compound No. 140: 400 mg/kg intravenously 3 times or 0.3 mg/ear applied to auricle): inhibited
accumulation of eosinophils to auricle induced by application of the antigen (Auricular Edema Model; Compound No. 140: 400 mg/kg intravenously 3 times or 0.3 mg/ear applied to auricle, Fig. 1, 400 mg/kg): inhibits
Ear Swelling Rate (%) (Auricular Edema Model; applied to auricle, 0.3 mg/ear, twice, 24 hours after induction): 26.12%
Inhibition Rate (%) (Auricular Edema Model; swelling of ear, applied to auricle, 0.3 mg/ear, twice): 40.3%
